Experimental data reported in US20100284924A1, “NANO-DEVICES HAVING IMPELLERS FOR CAPTURE AND RELEASE OF MOLECULES” (The Regents of the University of California, priority 2009, published 2010).

Columns and labels:
PANC-1 cancer cells [1] = assay: Photocontrolled staining of cell nuclei by released PI, confocal microscopy; format: cell-based, human; conditions: free PI not loaded into the particles
Procedure: FIGS. 8A-8C show confocal microscope images of the photocontrolled staining of the nuclei of PANC-1 cancer cells. Plasma membrane impermeable propidium iodide (PI) molecules were loaded in the pores of LAMS and the dye loaded particles were incubated with the cells for 3 hours in the dark. The cells were then exposed to the activation beam for 1 to 10 min. After further incubation in the dark for 10 min, the cells were examined with confocal microscopy ([…]) FIG. 8A. Cells incubated with the PI-loaded LAMS and illuminated for 0 (a), 1 (b), 3 (c), or 5 min (f) under a constant ˜0.2 W/cm^2, 413 nm light or with different light intensities (˜0.01 (d) or ˜0.1 W/cm^2 (e) for 5 min at a 413 nm light). FIG. 8B. PANC-1 cells incubated with the PI-loaded LAMS (g), free PI molecules (h), or empty LAMS (i) were kept in the dark and exposed to a 413 nm light. FIG. 8C. Cells incubated with the PI-loaded LAMS were illuminated with ˜0.2 W/cm^2, 676 nm light for 0 (j), 1 (k) or 5 min (l). Scale bar: 30 μm.
Based on the successful operation of the impeller in water, in vitro studies were carried out on two human cancer cell lines (PANC-1 and SW480). To detect the photo-responsive behavior of the impellers inside of cells, a membrane-impermeable dye, PI was chosen as the fluorescent probe molecule and loaded into the particles following the same procedure as that used for the Rhodamine B loading. […]

PANC-1 cancer cells [2] = assay: Cell death assay, propidium iodide/Hoechst 33342 double-staining, confocal imaging; format: cell-based, human; conditions: CPT suspended in PBS, not in particles
Procedure: FIGS. 9A-9C show light-triggered delivery of the anticancer drug camptothecin (CPT) inside PANC-1 cancer cells to induce apoptosis according to an embodiment of the current invention, CPT molecules were loaded into the pores of the LAMS and a homogeneous suspension of the CPT-loaded particles (10 μg/ml) was added to the cells which were incubated in Lab-Tek chamber slides for 3 hrs in dark. The cells were then irradiated under ˜0.1 W/cm^2, 413 nm light for 1 to 10 min, again incubated in the dark for 48 hours, and double-stained with propidium iodide/Hoechst 33342 solution (1:1). FIG. 9A. CPT-loaded particles were incubated with cancer cells and illuminated for 1 (a), 3 (b), 5 (c) or 10 min (d, e, f). FIG. 9B. […]
Cell Death Assay: Cell death was also examined by using the propidium iodide and Hoechst 33342 double-staining method. The cells incubated on a Lab-Tek chamber slide system were stained with propidium iodide/Hoechst 33342 (1:1) for 5 min after treatment with CPT-loaded LAMS or free LAMS followed by light irradiation, and then examined with fluorescence microscopy. […] The absorbance of each well was measured at 450 nm with a plate reader. Since the absorbance is proportional to the number of viable cells in the medium, the viable cell number was determined by using a previously prepared calibration curve (Dojindo Co.).

CC[N+](C)(CC)CCC[n+]1c(-c2ccccc2)c2cc(N)ccc2c2ccc(N)cc21.[I-].[I-] [PI, propidium iodide]
cell staining (cell entry) (PANC-1 cancer cells [1]): cell staining did not occur

CC[C@@]1(O)C(=O)OCc2c1cc1n(c2=O)Cc2cc3ccccc3nc2-1 [CPT, camptothecin]
cell killing (PANC-1 cancer cells [2]): did not kill the cells
